“And” between values parts separate entries of the source, which are not always exact repeats. Identical values can stand only once.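 Grown in 96-well plates, cells were treated for 48 hours with each compound at five concentrations. Insufficient inhibition: endpoint recorded as highest concentration tested. GI50 = concentration required for 50% inhibition of growth. TGI: total growth inhibition.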
Tests used:
Experiment in all cases: NCI-60 cell line screen, 48 h
TK-10 renal = tested on: TK-10 renal
SW-620 colon = tested on: SW-620 colon
UACC-62 melanoma = tested on: UACC-62 melanoma
CAKI-1 renal = tested on: CAKI-1 renal
NCI-H522 lung = tested on: NCI-H522 lung
A549 NSCLC = tested on: A549 NSCLC
RXF 393 renal = tested on: RXF 393 renal
786-0 renal = tested on: 786-0 renal
SK-MEL-2 melanoma = tested on: SK-MEL-2 melanoma
HCT-15 colon = tested on: HCT-15 colon

Compound | GI50 (TK-10 renal) | TGI (TK-10 renal) | GI50 (SW-620 colon) | TGI (SW-620 colon) | GI50 (UACC-62 melanoma) | TGI (UACC-62 melanoma) | GI50 (CAKI-1 renal) | TGI (CAKI-1 renal) | GI50 (NCI-H522 lung) | TGI (NCI-H522 lung) | GI50 (A549 NSCLC) | TGI (A549 NSCLC) | GI50 (RXF 393 renal) | TGI (RXF 393 renal) | GI50 (786-0 renal) | TGI (786-0 renal) | GI50 (SK-MEL-2 melanoma) | TGI (SK-MEL-2 melanoma) | GI50 (HCT-15 colon) | TGI (HCT-15 colon)
C=CCn1c(=O)c2cnc(Nc3ccc(N4CCN(C)CC4)cc3)nc2n1-c1cccc(C(C)(C)O)n1 | 0.1 µM and 0.31 µM | 5.94 µM and > 10 µM | 0.316 µM and 0.448 µM | 12.3 µM and > 10 µM | 1.18 µM and 0.484 µM | 20.5 µM and > 10 µM | 0.24 µM and 0.152 µM | 16.7 µM and > 10 µM | 0.176 µM and 0.293 µM | 0.645 µM and 2.08 µM | 1.14 µM and 1.47 µM | 11.4 µM and > 10 µM | 0.0855 µM and 0.232 µM | 0.531 µM and 1.14 µM | 0.377 µM and 0.362 µM | 9.71 µM and > 10 µM | 0.118 µM and 0.266 µM | 0.956 µM and 2.99 µM | 0.682 µM and 0.601 µM | > 67.1 µM
CCN(CC)CCC(CNc1c(C)cnc2cc(Cl)ccc12)c1ccc(Cl)cc1 (stereo not drawn) | 10.9 µM | 23.8 µM | 4.91 µM | 19.6 µM | 2.23 µM | 5.16 µM | 3.51 µM | 16.8 µM | 4.43 µM | 17.3 µM | 16 µM | 32.2 µM | 4.39 µM | 18.4 µM | 8.53 µM | 22.6 µM | 3.91 µM | 14.1 µM |  | 
CC(=O)NNc1nc(C)c(C(=O)/C=C/c2ccc(/C=C/C(=O)c3sc(NNC(C)=O)nc3C)cc2)s1 |  | > 100 µM |  | > 100 µM |  | > 100 µM |  | > 100 µM |  | > 100 µM |  | > 100 µM |  | > 100 µM |  | > 100 µM |  | > 100 µM |  | > 100 µM
C#C[C@H]1CCCCCC1O (stereo partly drawn) |  | > 100 µM |  | 69.8 µM |  | > 100 µM |  | > 100 µM |  | > 100 µM |  | > 100 µM |  | > 100 µM |  | > 100 µM |  | > 100 µM |  | > 100 µM
O=C1CSC(c2ccccc2O)N1c1nnc(Cn2ccnc2)o1 (stereo not drawn) | 14.1 µM | > 100 µM | 5.14 µM | 32.4 µM | 11.5 µM | 26 µM | 2.19 µM | 10.2 µM | 12 µM | 33 µM | 35.5 µM | > 100 µM | 22.7 µM | > 100 µM | 7.8 µM | > 100 µM | 15.2 µM | 36.4 µM | 3.04 µM | > 100 µM
CC1=C(C(=O)Nc2ccc(F)c(Cl)c2)C(c2ccccc2O)NC(=O)N1 (stereo not drawn) | 32.4 µM | 67.9 µM | > 100 µM | > 100 µM | 49 µM | > 100 µM | > 100 µM | > 100 µM | 61.9 µM | > 100 µM | > 100 µM | > 100 µM | > 100 µM | > 100 µM | > 100 µM | > 100 µM | > 100 µM | > 100 µM | > 100 µM | > 100 µM
CCOC1OC(=O)[C@H]2[C@@H]1[C@@H]1CC[C@H]2O1 (stereo partly drawn) | > 100 µM | > 100 µM | > 100 µM | > 100 µM | > 100 µM | > 100 µM | > 100 µM | > 100 µM | > 100 µM | > 100 µM | > 100 µM | > 100 µM | > 100 µM | > 100 µM | > 100 µM | > 100 µM | > 100 µM | > 100 µM | > 100 µM | > 100 µM

— PubChem BioAssay (NCI)
